Results taken from patent publication US4119724A, “Fungicidal compositions containing phosphorous acid and derivatives thereof” (Pepro, priority 1973, dated 1978).

Experiments:
Pythium de Baryanum = assay: In vitro test on mycelian growth (Agar Plate dilution), Pythium; assay type: cell-based; settings: 0.25 g/l, 4 days at 20° C
Protocol: (§1) In vitro Test on Mycelian Growth
(§2) The compounds according to the invention are studied for their effect on the mycelian growth of the following fungi:
(§3) The "Agar Plate dilution" method is used for each test. A mixture of gelose and an acetone solution or a wettable powder containing the material to be tested in a concentration of 0.25 g/l is poured into a Petri dish at a temperature of approximately 50° C.
(§4) The gelose-containing mixture is then allowed to solidify, after which mycelian culture discs of the fungus are placed on it.
(§5) After 4 days at 20° C., the surface area of the inhibition zone observed is evaluated and expressed as a percentage of the inoculated surface area.

Rhizoctonia solani = assay: In vitro test on mycelian growth (Agar Plate dilution), Rhizoctonia; assay type: cell-based; settings: 0.25 g/l, 4 days at 20° C
Protocol: as §1, §2
Rhizoctonia solani, responsible for neck canker
as §3, §4, §5

Plasmopara viticola [1] = assay: Systemic test by root absorption on vine mildew; assay type: in vivo; settings: 0.5 g/l, absorbed by the roots, assessed after about 9 days
Plasmopara viticola [2] = assay: In vivo test on vine plants, preventive treatment; settings: 0.5 g/l, leaves sprayed 48 hours before contamination, inspected 9 days after infestation
Plasmopara viticola [3] = assay: In vivo test on vine plants, treatment after contamination; settings: 1 g/l, inspected 9 days after contamination
Solubility in water = assay type: physicochemical
Plasmopara viticola [4] = assay: Open-air test on vine stocks; assay type: in vivo; settings: 2 g/l
Protocol: Groups of vine stocks (Gamay variety) are treated on the 27th June, 4th, 11th and 18th July, 1st and 7th August, with a spray of wettable powder containing 50% of an active material, namely compound 13 and manganese ethylene-1,2-bis-dithiocarbamate or manebe.
It should be noted that, in August and September, the mildew Plasmopara viticola was extremely virulent on account of heavy rainfall. For a uniform dose of 2 g/l, the results are expressed as percentage protection in relation to a contaminated but untreated control.

Phytophtora cinnamomi = assay: Avocado test; assay type: in vivo; settings: soil sprayed with 3 g/l solution, after 20 days
Text: Avocado seedlings (variety Persea indica) are planted in a soil infested with Phytophtora cinnamomi, after which the soil is sprayed with a solution containing 3 g/l of ammonium phosphite. Some seedlings are left untreated as controls. Under these conditions, it is found after 20 days that the roots of the controls are completely dead, whilst 90% of the treated seedlings are healthy.

Phytophtora parasitica = assay: Pineapple test; assay type: in vivo; settings: 0.5 g/l spray 48 hours after contamination, after 30 days
Protocol: Pineapple seedlings are contaminated with Phytophtora parasitica and then treated after 48 hours by spraying with a solution containing 0.5 g/l of calcium phosphite.

Botrytis cinerea = assay: In vitro test on mycelian growth (Agar Plate dilution), Botrytis; assay type: cell-based; settings: 0.25 g/l, 4 days at 20° C
Protocol: as §1, §2
Botrytis cinerea, responsible for grey rot
as §3, §4, §5

Piricularia oryzae = assay type: cell-based; settings: 0.25 g/l, 4 days at 20° C
[5] = inspection date 2/10 (approx. 2 months after last treatment)
[6] = inspection date 3/9 (approx. 1 month after last treatment)
[7] = inspection date 20/10 (approx. 2.5 months after last treatment)

| Compound | protection by root absorption (systemic) (Plasmopara viticola [1]) | protection (preventive treatment) (Plasmopara viticola [2]) | stop of the development of mildew (treatment after contamination) (Plasmopara viticola [3]) | other results |
| --- | --- | --- | --- | --- |
| NCCO.O=[PH](O)O [Compound 8, acid monoethanolamine phosphite] | – | – | – | inhibition of mycelian growth (inhibition zone as percentage of the inoculated surface area) (Pythium de Baryanum): 51%; inhibition of mycelian growth (inhibition zone as percentage of the inoculated surface area) (Rhizoctonia solani): 60% |
| O=[PH]([O-])[O-].[Ca+2] [Compound 10, neutral calcium phosphite] | good protection | total protection | – | – |
| O=[PH]([O-])[O-].[Ba+2] [Compound 12, neutral barium phosphite] | total protection | total protection | – | – |
| O=[PH]([O-])[O-].[Zn+2] [Compound 17, neutral zinc(II)phosphite] | total protection | total protection | completely stop the development of mildew | – |
| O=[PH]([O-])[O-].[Mg+2] [Compound 18, neutral magnesium phosphite] | – | good protection | – | – |
| O=[PH]([O-])[O-].O=[PH]([O-])[O-].O=[PH]([O-])[O-].[Al+3].[Al+3] [Compound 19, neutral aluminium phosphite] | total protection | total protection | – | – |
| O=[PH](O)O.c1c[nH]cn1 [Compound 21, acid phosphite of 1,3-imidazole] | total protection | good protection | completely stop the development of mildew | – |
| Nc1ccccc1 [Compound 22] | total protection | good protection | completely stop the development of mildew | solubility in water (Solubility in water): insoluble |
| NC1CCCCC1 [Compound 23] | good protection | – | – | solubility in water (Solubility in water): insoluble |
| C1COCCN1 [Compound 25] | total protection | good protection | completely stop the development of mildew | solubility in water (Solubility in water): insoluble |
| CC(C)c1ccc(N)cc1 [Compound 26] | – | good protection | completely stop the development of mildew | solubility in water (Solubility in water): insoluble |
| CC(C)c1cccc(N)c1 [Compound 27] | – | good protection | – | solubility in water (Solubility in water): insoluble |
| S=C([S-])NCCNC(=S)[S-].[Mn+2] [Manebe, manganese ethylene-1,2-bis-dithiocarbamate, reference compound] | – | – | – | percentage protection in relation to contaminated untreated control (Plasmopara viticola [4]; [5]): 62%; percentage protection in relation to contaminated untreated control (Plasmopara viticola [4]; [6]): 96%; percentage protection in relation to contaminated untreated control (Plasmopara viticola [4]; [7]): 15% |
| N.N.O.O=[P+](O)O [ammonium phosphite] | – | – | – | treated seedlings healthy (Phytophtora cinnamomi): 90% |
| calcium phosphite | – | – | – | inhibition of the fungus in treated seedlings (Phytophtora parasitica): completely inhibited |
| cuprous phosphite [Compound 20] | – | total protection | – | – |
| manganous phosphite [Compound 16] | – | total protection | completely stop the development of mildew | – |
| neutral copper(II)phosphite [Compound 13] | good protection | total protection | – | percentage protection in relation to contaminated untreated control (Plasmopara viticola [4]; [5]): 66%; percentage protection in relation to contaminated untreated control (Plasmopara viticola [4]; [6]): 94%; percentage protection in relation to contaminated untreated control (Plasmopara viticola [4]; [7]): 50% |
| neutral nickel (II)phosphite [Compound 14] | – | total protection | completely stop the development of mildew | inhibition of mycelian growth (inhibition zone as percentage of the inoculated surface area) (Botrytis cinerea): 48%; inhibition of mycelian growth (inhibition zone as percentage of the inoculated surface area) (Piricularia oryzae): 59%; inhibition of mycelian growth (inhibition zone as percentage of the inoculated surface area) (Rhizoctonia solani): 78% |
| trivalent iron phosphite [Compound 15] | – | good protection | – | – |
